# Source: patent US5252718A, “Fibroblast growth factor antagonists” (The Salk Institute for Biological Studies, priority 1992, dated 1993)
# Square brackets hold non-standard residues; d marks the D form. Ends that are not written are not given here. Peptide text beside a SMILES is read from it. Sar = CNCC(=O)O
# What was measured:
# [1] = tested on: BAAE cells; type: cell-based, bovine; conditions: for reducing cell population, bFGF-stimulated endothelial cell growth / reducing cell population, basal endothelial cell growth: manner of Example II, concentration not given
# Method: To determine the effectiveness of the bFGF fragment peptide to inhibit the growth of endothelial cells, the peptide is tested under conditions to measure its ability to modulate both basal cell growth and bFGF-simulated cell proliferation. A bioassay was employed of the type set forth in detail in Gospodarowicz et al., J. Cell Biol., 122, 323-333 (1985), using BAAE cells.
# For each test, an initial cell density of between about 0.3-0.5×10^4 cells per well was established in 24-miniwell plates. After 6-8 hours, the cells in each well were treated with a challenge dose of bFGF in the absence, or presence to a varying concentration, of a synthetic FGF antagonist. The precise treatment was repeated 48 hours later. On the fifth day, the cells were digested with trypsin, and the total number of cells in each well was determined using a Coulter particle counter.
# [2] = tested on: FGF receptors of BHK cells; conditions: result in words
# [3] = Binding to [^3 H]-heparin; conditions: result in words
# [4] = tested on: 3T3 cells; experiment: [^3 H]-thymidine incorporation in serum-starved 3T3 cells challenged with bFGF; type: cell-based; conditions: 24 hours with peptide and bFGF challenge, then 5 hours label, result in words
# Method: The synthesis of bFGF(97-120)-NH2 having the formula: H-Arg-Leu-Glu-Ser-Asn-Asn-Tyr-Asn-Thr-Tyr-Arg-Ser-Arg-Lys-Tyr-Ser-Ser-Trp- Tyr-Val-Ala-Lys-Arg-NH2 is conducted in a stepwise manner using a Beckman 990 synthesizer and an MBHA resin in the manner described in Example I. The peptide is judged to be substantially pure using TLC and HPLC. Testing is carried out using a culture of serum-starved 3T3 cells which are incubated for 24 hours with the bFGF peptide fragment and a challenge dose of bFGF and then incubated for 5 hours with radioactive [^3 H]-thymidine to determine whether the fragment will inhibit the incorporation of [^3 H]-DNA in the cell line which will be indicative of its inhibiting cell growth.
molecule,measurement,setting,value
"N=C(N)NCCC[C@H](NC(=O)CNC(=O)[C@H](CC(=O)O)NC(=O)[C@@H]1CCCN1)C(N)=O [bFGF(36-39)-NH2, H-Pro-Asp-Gly-Arg-NH2] (H-PDGR-NH2)",ID50,[1],30 to 50 µM
same,"reducing cell population, bFGF-stimulated endothelial cell growth",[1],about 54%
same,"reducing cell population, basal endothelial cell growth",[1],about 37%
same,antagonist activity to both basal and bFGF-stimulated endothelial cell growth,[1]; result in words,full antagonist activity
YKNGGFFLRIHPDGRVDGVREKSDPHIKLQLQAEERGVVSIKGV-NH2 [[Tyr^25]-bFGF(25-68)-NH2],"reducing cell population, bFGF-stimulated endothelial cell growth",[1],about 95%
same,"reducing cell population, basal endothelial cell growth",[1],about 86%
same,antagonist activity to both basal and bFGF-stimulated endothelial cell growth,[1]; result in words,full antagonist activity
same,binding affinity for BHK cells,[2],very strong binding affinity
same,binding of the peptide to heparin,[3],very strong binding affinity
"H-YFLRIHPDGRVDGVREKSDPY-OH [[Tyr30,50]-bFGF(30-50)-OH, H-Tyr-Phe-Leu-Arg-Ile-His-Pro-Asp-Gly-Arg-Val-Asp-Gly-Val-Arg-Glu-Lys-Ser- Asp-Pro-Tyr-OH]",antagonist activity to both basal and bFGF-stimulated endothelial cell growth,[1]; result in words,full antagonist activity
"H-HPDGRVDGVREKSDPH-NH2 [bFGF(35-50)-NH2, H-His-Pro-Asp-Gly-Arg-Val-Asp-Gly-Val-Arg-Glu-Lys-Ser-Asp-Pro-His-NH2]",antagonist activity to both basal and bFGF-stimulated endothelial cell growth,[1]; result in words,full antagonist activity
"H-SNNYNTYRSRKYSSWYVALKR-NH2 [bFGF(100-120)-NH2, H-Ser-Asn-Asn-Tyr-Asn-Thr-Tyr-Arg-Ser-Arg-Lys-Tyr-Ser-Ser-Trp-Tyr-Val-Ala- Leu-Lys-Arg-NH2]",inhibition of bFGF binding to BHK cells (receptor),[2],very strongly inhibits
same,binding of the peptide to heparin,[3],binds itself to heparin
same,inhibition of bFGF-induced mitosis ([^3 H]-thymidine incorporation),[4],very good inhibition
"H-FFLRIHPDGRVDGVREKSDP-NH2 [bFGF(30-49)-NH2, H-Phe-Phe-Leu-Arg-Ile-His-Pro-Asp-Gly-Arg-Val-Asp-Gly-Val-Arg-Glu-Lys-Ser- Asp-Pro-NH2]",antagonist activity to both basal and bFGF-stimulated endothelial cell growth,[1]; result in words,full antagonist activity
"H-YRSRKYSSMYVALKR-NH2 [[Met^114]-bFGF(106-120)-NH2, H-Tyr-Arg-Ser-Arg-Lys-Tyr-Ser-Ser-Met-Tyr-Val-Ala-Leu-Lys-Arg-NH2]",inhibition of bFGF binding to BHK cells (receptor),[2],very strongly inhibits
same,inhibition of bFGF-induced mitosis ([^3 H]-thymidine incorporation),[4],very good inhibition
"H-LRIHPDGRVDGVREKSDPHIKL-NH2 [bFGF(32-53)-NHz, H-Leu-Arg-Ile-His-Pro-Asp-Gly-Arg-Val-Asp-Gly-Val-Arg-Glu-Lys-Ser-Asp-Pro- His-Ile-Lys-Leu-NH2]",antagonist activity to both basal and bFGF-stimulated endothelial cell growth,[1]; result in words,weak antagonist activity
"H-FFLRIHPDGRVDGVREKSDPY-NH2 [[Tyr^50]-bFGF(30-50)-NHz, H-Phe-Phe-Leu-Arg-Ile-His-Pro-Asp-Gly-Arg-Val-Asp-Gly-Val-Arg-Glu-Lys-Ser- Asp-Pro-Tyr-NH2]","reducing cell population, bFGF-stimulated endothelial cell growth",[1],about 6%
same,"reducing cell population, basal endothelial cell growth",[1],about 19%
same,antagonist activity to both basal and bFGF-stimulated endothelial cell growth,[1]; result in words,full antagonist activity
H-YCKNGGFFLRIHPDGRVDGVREKSDPHIKLQLQAEERGVVSIKGV-NH2 [bFGF(24-68)-NH2],ID50,[1],about 5 micromolar
same,"cell population reduced, bFGF-stimulated cell growth","[1]; bFGF-stimulated cell growth, peptide about 100 μg/ml",about 92%
same,"cell population reduced, basal cell growth","[1]; basal cell growth, peptide about 100 μg/ml",about 84%
same,antagonist activity to both basal and bFGF-stimulated endothelial cell growth,[1]; result in words,full antagonist activity
same,binding of the peptide to heparin,[3],strong affinity
H-Arg-Leu-Glu-Ser-Asn-Asn-Tyr-Asn-Thr-Tyr-Arg-Ser-Arg-Lys-Tyr-Ser-Ser-Trp- Tyr-Val-Ala-Lys-Arg-NH2 (H-RLESNNYNTYRSRKYSSWYVAKR-NH2) [bFGF(97-120)-NH2],inhibition of bFGF binding to BHK cells (receptor),[2],very strongly inhibits
same,binding of the peptide to heparin,[3],binds itself to heparin
same,inhibition of bFGF-induced mitosis ([^3 H]-thymidine incorporation),[4],very good inhibition
"H-YRSRKYSSWY-NH2 [bFGF(106-115)-NH2, H-Tyr-Arg-Ser-Arg-Lys-Tyr-Ser-Ser-Trp-Tyr-NH2]",inhibition of bFGF binding to BHK cells (receptor),[2],very strongly inhibits
same,binding of the peptide to heparin,[3],binds to heparin
same,inhibition of bFGF-induced mitosis ([^3 H]-thymidine incorporation),[4],very good inhibition
"H-HPDGRVDAVREKTDPH-NH2 [[Ala^42, Thr^47]-bFGF(35-50)-NH2, H-His-Pro-Asp-Gly-Arg-Val-Asp-Ala-Val-Arg-Glu-Lys-Thr-Asp-Pro-His-NH2]",antagonist activity to both basal and bFGF-stimulated endothelial cell growth,[1]; result in words,full antagonist activity
"H-YRSRKYSSWFVALKR-NH2 [[Phe^115]-bFGF(106-120)-NH2, H-Tyr-Arg-Ser-Arg-Lys-Tyr-Ser-Ser-Trp-Phe-Val-Ala-Leu-Lys-Arg-NH2]",inhibition of bFGF binding to BHK cells (receptor),[2],very strongly inhibits
same,inhibition of bFGF-induced mitosis ([^3 H]-thymidine incorporation),[4],very good inhibition
"H-YRSRKYSSWYVAL-NH2 [bFGF(106-118)-NH2, H-Tyr-Arg-Ser-Arg-Lys-Tyr-Ser-Ser-Trp-Tyr-Val-Ala-Leu-NH2]",antagonist activity in mitogenic assays,[1]; result in words,partial antagonist activity
same,inhibition of bFGF binding to BHK cells (receptor),[2],inhibits binding
"H-YNTYRSRKYSSWYVALKRTGQYKLGPKTGPGQKAILFLPMSAKS-NH2 [bFGF(103-146)-NH2, H-Tyr-Asn-Thr-Tyr-Arg-Ser-Arg-Lys-Tyr-Ser-Ser-Trp-Tyr-Val-Ala-Leu-Lys-Arg- Thr-Gly-Gln-Tyr-Lys-Leu-Gly -Pro-Lys-Thr-Gly-Pro-Gly-Gln-Lys-Ala-Ile-Leu-Phe-Leu-Pro-Met-Ser-Ala-Lys-Ser-NH2]",inhibition of bFGF binding to BHK cells (receptor),[2],very strongly inhibits
same,inhibition of FGF binding to heparin,[3],very strongly inhibits
H-Cys-Lys-Asn-Gly-Gly-Phe-Phe-T-Arg-Ile-His-Pro-Asp-NH2 [bFGF(25-37)-NH2],antagonist activity to basal endothelial cell growth,"[1]; basal growth only, result in words",some antagonist activity
same,binding affinity for BHK cells,[2],fair affinity
same,binding of the peptide to heparin,[3],fairly strong binding affinity
H-YNTYRSRKYSAWYVALKRTGQYKLGPKTGPGQKAILFLPMSAKS-NH2 [[Ala^113]-bFGF(103-146)-NH2],inhibition of bFGF binding to BHK cells (receptor),[2],very strongly inhibits
YCKNGGFFLRIHPDGRVDGVREKADPHIKLQLQAEERGVV-NH2 [[Ala^47]-bFGF(24-63)-NH2],antagonist activity to both basal and bFGF-stimulated endothelial cell growth,[1]; result in words,full antagonist activity
"H-PDGRVDAVREKSDPHIKLQLQAEERGVVSIKGV-NH2 [[Ala^42]-bFGF(36-68)-NH2, H-Pro-Asp-Gly-Arg-Val-Asp-Ala-Val-Arg-Glu-Lys-Ser-Asp-Pro-His-Ile-Lys-Leu- Gln-Leu-Gln-Ala-Glu Glu-Arg-Gly-Val-Val-Ser-Ile-Lys-Gly-Val-NH2]",antagonist activity to both basal and bFGF-stimulated endothelial cell growth,[1]; result in words,full antagonist activity
"H-LRIHPDGR-NH2 [bFGF(32-39)-NHz, H-Leu-Arg-Ile-His-Pro-Asp-Gly-Arg-NH2]","reducing cell population, bFGF-stimulated endothelial cell growth",[1],about 11%
same,"reducing cell population, basal endothelial cell growth",[1],about 37%
same,antagonist activity to both basal and bFGF-stimulated endothelial cell growth,[1]; result in words,full antagonist activity
"YCKNGGFFLRIHPDGRVDGVREKSDPHIKLQLQAEERGVV-NH2 [bFGF(24-63)-NH2, H-Tyr-Cys-Lys-Asn-Gly-Gly-Phe-Phe-Leu-Arg-Ile-His-Pro-Asp-Gly-Arg-Val-Asp- Gly-Val-Arg-Glu-LysSer-Asp-Pro-His-Ile-Lys-Leu-Gln-T-Gln-Ala -Glu-Glu-Arg-Gly-Val-Val-NH2]",antagonist activity to both basal and bFGF-stimulated endothelial cell growth,[1]; result in words,full antagonist activity
CC[C@H](C)[C@H](NC(=O)[C@H](CO)NC(=O)[C@@H](NC(=O)[C@@H](NC(=O)CNC(=O)[C@H](CCCNC(=N)N)NC(=O)[C@H](CCC(=O)O)NC(=O)[C@H](CCC(=O)O)NC(=O)[C@H](C)NC(=O)[C@H](CCC(N)=O)NC(=O)[C@H](CC(C)C)NC(=O)[C@H](CCC(N)=O)NC(=O)[C@H](CC(C)C)NC(=O)[C@H](CCCCN)NC(=O)[C@@H](NC(=O)[C@H](Cc1c[nH]cn1)NC(=O)[C@@H]1CCCN1C(=O)[C@H](CC(=O)O)NC(=O)[C@H](CO)NC(=O)[C@H](CCCCN)NC(=O)[C@H](CCC(=O)O)NC(=O)[C@H](CCCNC(=N)N)NC(=O)[C@@H](NC(=O)CN(C)C(=O)[C@H](CC(=O)O)NC(=O)[C@@H](NC(=O)[C@H](CCCNC(=N)N)NC(=O)CNC(=O)[C@H](CC(=O)O)NC(=O)[C@@H]1CCCN1)C(C)C)C(C)C)[C@@H](C)CC)C(C)C)C(C)C)C(=O)N[C@@H](CCCCN)C(=O)NCC(=O)N[C@H](C(N)=O)C(C)C [[Sar42]-bFGF(36-68)-NH2] (H-PDGRVD[Sar]VREKSDPHIKLQLQAEERGVVSIKGV-NH2),antagonist activity to both basal and bFGF-stimulated endothelial cell growth,[1]; result in words,full antagonist activity
"H-FFFERLESNNYNTYRSRKYSSWYVALKR-NH2 [bFGF(93-120)-NH2, H-Phe-Phe-Phe-Glu-Arg-Leu-Glu-Ser-Asn-Asn-Tyr-Asn-Thr-Tyr-Arg-Ser-Arg-Lys- Tyr-Ser-Ser-Trp-Tyr-Val-Ala Leu-Lys-Arg-NH2]",antagonist activity to both basal and bFGF-stimulated endothelial cell growth,[1]; result in words,full antagonist activity
same,inhibition of bFGF binding to BHK cells (receptor),[2],inhibits the binding
same,binding of the peptide to heparin,[3],binds to heparin
YCKNGGFFLRIHPDGRVDGVREKSDPHIKLQLQAEERGVVSIKGV [bFGF(24-68)-OH],ID50,[1],about 5 micromolar
